# What was measured:
# [1] = biological target: T1, JAK2 (Homo sapiens (Human), UniProt O60674); assay: JAK2 inhibitory activity, mobility shift assay, 1 mM ATP; format: biochemical
# Protocol: (§1) The JAK1 inhibitory activity and the JAK2 inhibitory activity of the amide compounds provided in the above examples were tested by the method below.
# (§2) Specific steps are described below. • 1. A 1× Kinase buffer was formulated. • 2. Concentration gradients of the compound were formulated: a test compound with an initial concentration of 10000 nM (JAK1) or 30000 nM (JAK2) was diluted in a 384-well plate to a 100% DMSO solution with a 100-fold final concentration, wherein the compound was diluted by a fold of 3 to 10 concentrations. 250 nL of the compound with the 100-fold final concentration was transferred with a dispenser Echo 550 to the target plate. • 3. A kinase solution with a 2.5-fold final concentration was prepared with the 1× Kinase buffer. • 4. […] The plate was centrifuged at 1000 rpm for 30 s, shaken and uniformly mixed, and incubated for 10 min at room temperature. • 6. A mixed solution of ATP (the final concentration of ATP=1 mM) and Kinase substrate with a 5/3-fold final concentration was formulated with the 1× Kinase buffer. • 7. 15 μL of the mixed solution of ATP and the substrate with the 5/3-fold final concentration was added to initiate the reaction. • 8. The 384-well plate was centrifuged at 1000 rpm for 30 s, shaken and uniformly mixed, and incubated for respective times at room temperature. • 9. The kinase reaction was stopped by adding 30 μL of a detection termination solution, and the plate was centrifuged at 1000 rpm for 30 s and shaken and uniformly mixed. • 10. The conversion rate was read with Caliper EZ Reader and the half maximal inhibitory concentration (IC50) was calculated.
# Target sequence in this assay (O60674 826-1132): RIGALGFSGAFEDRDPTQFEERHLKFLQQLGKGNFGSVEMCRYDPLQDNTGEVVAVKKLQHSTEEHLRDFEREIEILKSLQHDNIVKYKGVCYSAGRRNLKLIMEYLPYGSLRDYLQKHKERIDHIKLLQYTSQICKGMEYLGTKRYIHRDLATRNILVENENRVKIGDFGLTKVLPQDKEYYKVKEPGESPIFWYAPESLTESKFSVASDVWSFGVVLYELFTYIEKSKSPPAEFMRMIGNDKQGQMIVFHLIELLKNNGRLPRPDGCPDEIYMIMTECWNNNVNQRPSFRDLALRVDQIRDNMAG
# [2] = test system: IFNα-induced pSTAT3 (JAK1/TYK2 signaling pathway); assay: Mouse whole blood assay, inhibition of IFNα-induced pSTAT3; format: cell-based; details: C57BL/6J mouse blood, IFNα 20000 IU/mL
# Protocol: Cytokine IFNα can induce STAT3 phosphorylation (pSTAT3) through the JAK1/TYK2 signaling pathway. […] IFNα used was Recombinant mouse IFNα (Miltenyi #130-093-131), the pSTAT3 antibody used was Alexa Fluor 488 anti-STAT3 Phospho (Tyr705) Antibody (Biolegend #651106), and the CD3 antibody used was Brilliant Violet 421 anti-mouse CD3 Antibody (Biolegend #100228). The cytokine dilution buffer was PBS+0.1% BSA, which was filtered and stored at […]. The FACS buffer was PBS+0.2% BSA+1 mM EDTA. Specific steps are described below. • 1. C57BL/6J mouse blood was added to a 96-well plate, with 90 μL per well. • 2. Each well was added with 5 μL of the compound ([…]), uniformly mixed and incubated at 37° C. for 60 min in an incubator. • 3. Each well was added with 5 μL of 20×IFNα (with a working concentration of 20000 IU/mL) as the stimulation factor, uniformly mixed and incubated at 37° C. for 30 min. • 4. Blood was transferred to a 96-deep-well plate, and each well was added with 1 mL of Lyse fix buffer (1×), uniformly mixed and incubated at 37° C. for 10 min. • 5. The plate was centrifuged at 600 g for 5 min and the supernatant was discarded. 1 mL of PBS was added to each well and centrifuged at 600 g for 5 min and the supernatant was discarded, which were repeated twice. Each well was added with 100 μL of the anti-mCD3 antibody (diluted by a fold of 80 with the cytokine dilution buffer), uniformly mixed and incubated at 4° C. for 30 min. • 6. 1 mL of PBS was added to each well and centrifuged at 600 g for 5 min and the supernatant was discarded, which were repeated twice. Each well was added with 1000 μL of Perm III, uniformly mixed and incubated at 4° C. for 30 min. • 7. The plate was centrifuged at 600 g for 5 min and the supernatant was discarded. 1 mL of PBS was added to each well and centrifuged at 600 g for 5 min and the supernatant was discarded, which were repeated twice. • 8. Each well was added with 100 μL of the anti-pSTAT3 antibody (diluted by a fold of 50 with the FACS buffer), uniformly mixed and incubated at 25° C. for 40 min. • 9. 1 mL of the FACS buffer was added to each well and centrifuged at 600 g for 5 min and the supernatant was discarded. 200 μL of the FACS buffer was added to each well and resuspended. All samples were transferred to a 96-well tip-bottom plate and uploaded. • 10. Data were collected and analyzed.
# [3] = biological target: JAK1 (Homo sapiens (Human), UniProt P23458); assay: JAK1 inhibitory activity, mobility shift assay, 1 mM ATP; format: biochemical; details: for IC50: 1 mM ATP; for JAK2/JAK1 Multiple selectivity: ratio of JAK2 IC50 to JAK1 IC50, 1 mM ATP
# Protocol: as §1, §2
# [4] = biological target: T1, JAK2; details: selective JAK1 inhibitors, literature; cited from earlier work
# Target sequence in this assay (O60674 whole entry, species assumed): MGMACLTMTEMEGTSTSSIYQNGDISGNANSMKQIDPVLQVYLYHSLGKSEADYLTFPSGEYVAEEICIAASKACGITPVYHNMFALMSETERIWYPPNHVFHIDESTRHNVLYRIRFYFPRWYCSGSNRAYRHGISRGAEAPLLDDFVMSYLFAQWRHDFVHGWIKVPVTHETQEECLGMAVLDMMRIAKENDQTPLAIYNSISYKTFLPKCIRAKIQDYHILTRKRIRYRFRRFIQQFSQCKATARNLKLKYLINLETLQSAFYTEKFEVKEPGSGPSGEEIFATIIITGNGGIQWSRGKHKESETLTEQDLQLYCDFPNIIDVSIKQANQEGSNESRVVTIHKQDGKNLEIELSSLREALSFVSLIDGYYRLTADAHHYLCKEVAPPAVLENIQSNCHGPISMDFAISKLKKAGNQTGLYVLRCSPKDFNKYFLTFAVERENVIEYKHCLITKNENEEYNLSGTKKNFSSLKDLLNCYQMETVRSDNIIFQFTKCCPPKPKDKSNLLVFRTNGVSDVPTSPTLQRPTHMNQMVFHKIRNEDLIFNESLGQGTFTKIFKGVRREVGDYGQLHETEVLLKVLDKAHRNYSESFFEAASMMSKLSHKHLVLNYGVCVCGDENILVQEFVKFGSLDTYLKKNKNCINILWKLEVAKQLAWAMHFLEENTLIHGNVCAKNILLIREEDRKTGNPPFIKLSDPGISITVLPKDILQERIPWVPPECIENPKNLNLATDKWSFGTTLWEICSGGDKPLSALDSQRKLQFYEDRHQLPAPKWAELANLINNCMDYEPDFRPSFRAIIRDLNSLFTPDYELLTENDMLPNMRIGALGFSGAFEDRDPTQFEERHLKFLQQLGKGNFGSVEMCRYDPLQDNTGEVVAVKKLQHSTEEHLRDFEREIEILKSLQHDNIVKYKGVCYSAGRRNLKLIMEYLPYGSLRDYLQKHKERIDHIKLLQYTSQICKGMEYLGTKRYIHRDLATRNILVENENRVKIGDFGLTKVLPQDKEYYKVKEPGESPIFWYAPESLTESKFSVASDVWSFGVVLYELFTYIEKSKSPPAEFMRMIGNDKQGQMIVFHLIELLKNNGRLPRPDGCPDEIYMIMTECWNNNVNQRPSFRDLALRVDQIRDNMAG
# JAK1, sequence (P23458 850-1154): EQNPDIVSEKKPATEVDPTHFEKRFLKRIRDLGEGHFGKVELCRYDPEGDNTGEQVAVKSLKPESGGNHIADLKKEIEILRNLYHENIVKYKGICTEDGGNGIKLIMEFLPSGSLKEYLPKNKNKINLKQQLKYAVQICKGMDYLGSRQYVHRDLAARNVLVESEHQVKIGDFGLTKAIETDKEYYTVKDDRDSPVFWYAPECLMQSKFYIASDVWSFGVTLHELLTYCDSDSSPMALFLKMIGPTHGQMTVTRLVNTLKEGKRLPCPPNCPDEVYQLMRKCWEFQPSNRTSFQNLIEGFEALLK
Compound,IC50 ([1]; Table 7),IC50 ([1]; Table 8),IC50 [2],IC50 ([3]; Table 7),IC50 ([3]; Table 8),JAK2/JAK1 Multiple selectivity [3],selectivity for JAK2 in kinase assays [4]
"COc1nn(C)cc1Nc1ncc(C)c(-c2c[nH]c3c(NC(=O)[C@H]4C[C@H](F)CN4[C@@H]4CCN(C)C4)cccc23)n1 [Example 30, (2R,3′R,4S)-4-fluoro-N-(3-(2-((3-methoxy-1-methyl-1H-pyrazol-4-yl)amino)-5-methylpyrimidin-4-yl)-1H-indol-7-yl)-1′-methyl-[1,3′-bipyrrolidine]-2-carboxamide]",5160 nM,5160 nM,127 nM,33 nM,33 nM,156,
"COc1nn(C)cc1Nc1ncc(F)c(-c2c[nH]c3c(NC(=O)[C@H]4C[C@H](F)CN4[C@@H]4CCN(C)C4)cccc23)n1 [Example 38, (2R,3′R,4S)-4-fluoro-N-(3-(5-fluoro-2-((3-methoxy-1-methyl-1H-pyrazol-4-yl)amino)pyrimidin-4-yl)-1H-indol-7-yl)-1′-methyl-[1,3′-bipyrrolidine]-2-carboxamide]",5280 nM,,,34 nM,,,
"COc1nn(C)cc1Nc1ncc(F)c(-c2c[nH]c3c(NC(=O)[C@H]4C[C@H](F)CN4[C@H]4CCN(C)C4)cccc23)n1 [Example 39, (2R,3′S,4S)-4-fluoro-N-(3-(5-fluoro-2-((3-methoxy-1-methyl-1H-pyrazol-4-yl)amino)pyrimidin-4-yl)-1H-indol-7-yl)-1′-methyl-[1,3′-bipyrrolidine]-2-carboxamide]",4850 nM,,,50 nM,,,
"COc1nn(C)cc1Nc1nccc(-c2c[nH]c3c(NC(=O)[C@H]4C[C@H](F)CN4C4CCN(C)CC4)cccc23)n1 [Example 40, (2R,4S)-4-fluoro-N-(3-(2-((3-methoxy-1-methyl-1H-pyrazol-4-yl)amino)pyrimidin-4-yl)-1H-indol-7-yl)-1-(1-methylpiperidin-4-yl)pyrrolidine-2-carboxamide]",24300 nM,,,259 nM,,,
"CCCS(=O)(=O)N[C@H]1C[C@@H](N(C)c2ncnc3[nH]ccc23)C1 [abrocitinib, reference compound]",,,204 nM,,,,
O=C(Nc1nc2cccc(-c3ccc(CN4CCS(=O)(=O)CC4)cc3)n2n1)C1CC1 [filgotinib],,,,,,,less than three
CC[C@@H]1CN(C(=O)NCC(F)(F)F)C[C@@H]1c1cnc2cnc3[nH]ccc3n12 [upadacitinib],,,,,,,less than three

# Further lines, with some results ahead:
IC50 ([1]; Table 7),IC50 ([1]; Table 8),IC50 [2],IC50 ([3]; Table 7),IC50 ([3]; Table 8),JAK2/JAK1 Multiple selectivity [3],Compound,selectivity for JAK2 in kinase assays [4]
4020 nM,4020 nM,173 nM,56 nM,56 nM,72,"COc1nn(C)cc1Nc1nccc(-c2c[nH]c3c(NC(=O)[C@@H](C)N4CCN(C)CC4)cccc23)n1 [AZD4205, reference compound]",
3880 nM,3880 nM,121 nM,26 nM,26 nM,149,"COc1nn(C)cc1Nc1ncc(C)c(-c2c[nH]c3c(NC(=O)[C@H]4CC(F)(F)CN4[C@@H]4CCN(C)C4)cccc23)n1 [Example 32, (2R,3′R)-4,4-difluoro-N-(3-(2-((3-methoxy-1-methyl-1H-pyrazol-4-yl)amino)-5-methylpyrimidin-4-yl)-1H-indol-7-yl)-1′-methyl-[1,3′-bipyrrolidine]-2-carboxamide]",
10800 nM,,,216 nM,,,"COc1nn(C)cc1Nc1nccc(-c2c[nH]c3c(NC(=O)[C@H]4CC(F)(F)CN4[C@H]4CCN(C)C4)cccc23)n1 [Example 37, (2R,3′S)-4,4-difluoro-N-(3-(2-((3-methoxy-1-methyl-1H-pyrazol-4-yl)amino)pyrimidin-4-yl)-1H-indol-7-yl)-1′-methyl-[1,3′-bipyrrolidine]-2-carboxamide]",

# From patent publication US20230416237A1, “AMIDE COMPOUND, PHARMACEUTICAL COMPOSITION AND USE THEREOF” (SHENZHEN BO LI JIAN MEDICINE CO., LTD., priority 2020, published 2023)
